Assay results from US9622953B2, “Cosmetic use of catalytic oxidation compounds chosen from porphyrins, phthalocyanines and/or porphyrazines as deodorant agent” (L'Oreal, priority 2011, dated 2017).

Assays:
[1] = Test 1: Oxidation of 2,2,6,6-tetramethylpiperidine (TEMP); settings: phosphate buffer pH 7.4, 50 mM TEMP, porphyrin 0.5 μM, oxygen saturated, daylight, 1 hour, EPR
Experimental: (§1) The oxidizing agent used during this test is dissolved oxygen.
A solution comprising a phosphate buffer (pH 7.4), 50 mM of the compound 2,2,6,6-tetramethylpiperidine (TEMP) and a porphyrin compound at 0.5 μM is prepared. The solution is saturated with oxygen. The solution is subjected to daylight.
After 1 hour, electron paramagnetic resonance spectrometry (EPR) is performed on the oxidized form of the compound 2,2,6,6-tetramethylpiperidine (TEMP), which corresponds to the compound (2,2,6,6-tetramethylpiperidin-1-yl)oxyl, known as TEMPO.
With a porphyrin compound according to the invention, the appearance of the compound TEMPO is observed after bringing into contact for 1 hour.

[2] = Test 3: Activation of Hydrogen Peroxide; settings: 1 mM porphyrin in 10-volume hydrogen peroxide, spontaneous pH, daylight
Experimental: 1 mM of a porphyrin compound is placed in 10-volume hydrogen peroxide, spontaneous pH.
The solution is subjected to daylight.
The content of hydrogen peroxide is then assayed. The porphyrin compound is regarded as within the invention if it reduces the amount of hydrogen peroxide by factor of at least 2 (5 volumes or less).

[3] = Blind sniff test of incubated flasks of human sweat by a panel of 8 testers; settings: 1 mg of porphyrin compound in flask of sweat, same trial as Example 1
Experimental: 1) Human sweat is collected. During this collecting, the sweat is frozen.
2) The sweat is subsequently placed in a flask, so that there is an air phase above, once the flask is closed. 1 gram of sweat is placed in a 20 ml flask.
3) The porphyrin compound is placed in the flask in a proportion of 0.1 mg.
4) The flask is closed and incubated at 37° C. A test is then carried out which consists in sniffing the flask at t=4 hours and at t=16 hours.
The test is carried out blind and in comparison with a flask of sweat not comprising additive, a flask of sweat comprising a porphyrin compound not included in the present invention, such as cupric chlorophyllin, and a flask of sweat comprising 0.1 mg of triclosan.
The test is carried out by a panel composed of 8 testers who record their impression in terms of odorous intensity and of quality (ranging from neutral up to repulsive) and the mean of the impressions is produced.
1 mg of each of the porphyrin compounds is introduced into flasks comprising sweat collected in the same way as in Example 1.

[4] = Test 2: Oxidation of DMPO; settings: aqueous solution pH=7, 100 mM DMPO, porphyrin 100 μM, oxygen saturated, daylight, 1 hour, EPR
Experimental: as §1
An aqueous solution, pH=7, comprising 100 mM of DMPO and a porphyrin compound at 100 μM, is prepared. The solution is saturated with oxygen. The solution is subjected to daylight.
After 1 hour, electron paramagnetic resonance spectrometry (EPR) is performed on the oxidized form of the compound 5,5-dimethyl-1-pyrroline N-oxide, known as DMPO-OH.
More specifically, the EPR spectrum is characterized by a hyperfine coupling constant of a^N=a^H=14.6 G.

Molecule	formation of the compound TEMPO (response to Test 1) [1]	reduction of the amount of hydrogen peroxide by factor of at least 2 (response to Test 3) [2]	effectiveness in the sweat flask odour trial [3]	formation of DMPO-OH (response to Test 2) [4]
O=S(=O)(O)c1ccc(-c2c3nc(c(-c4ccc(S(=O)(=O)O)cc4)c4ccc([nH]4)c(-c4ccc(S(=O)(=O)O)cc4)c4nc(c(-c5ccc(S(=O)(=O)O)cc5)c5ccc2[nH]5)C=C4)C=C3)cc1 [anionic porphyrin compound]	responds positively	responds positively	effective	–
C[n+]1ccc(-c2c3nc(c(-c4cc[n+](C)cc4)c4ccc([nH]4)c(-c4cc[n+](C)cc4)c4nc(c(-c5cc[n+](C)cc5)c5ccc2[nH]5)C=C4)C=C3)cc1 [cationic porphyrin compound]	responds positively	–	effective	responds positively
copper chlorophyllin [reference compound]	does not result in the formation of the compound TEMPO	–	–	–
